The values below come from ChEMBL document CHEMBL1143445, “Highly cytotoxic and neurotoxic acetogenins of the Annonaceae: new putative biological targets of squamocin detected by activity-based protein profiling” (Bioorg Med Chem Lett, 2008).

The nature of data set [1]: Drug uptake in mitochondria of human HeLa cells assessed as intracellular localization after 6 hrs. The format is ADME.
For data set [2], the target named is COP9 signalosome complex subunit 7b (Homo sapiens) (UniProt Q9H9Q2). As to the kind of experiment: Binding affinity to COP9 signalosome complex subunit 7b in human Jurkat cells at 10 uM after 24 hrs by 2D electrophoresis. The format is cell-based.
Data set [3] addresses T1, Glutathione S-transferase omega-1 (Homo sapiens) (UniProt P78417).
T1 sequence (whole entry): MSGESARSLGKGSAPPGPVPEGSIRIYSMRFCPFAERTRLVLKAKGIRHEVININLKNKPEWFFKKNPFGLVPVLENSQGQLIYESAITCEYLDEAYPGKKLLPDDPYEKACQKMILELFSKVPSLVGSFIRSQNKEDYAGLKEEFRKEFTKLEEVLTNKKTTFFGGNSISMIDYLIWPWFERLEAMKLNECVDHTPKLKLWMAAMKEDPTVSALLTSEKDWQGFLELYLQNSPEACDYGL
In words: Binding affinity to glutathione transferase omega 1 in human Jurkat cells at 10 uM after 24 hrs by 2D electrophoresis. Type of data set: cell-based.

In data set [4] the target is Succinate dehydrogenase [ubiquinone] flavoprotein subunit, mitochondrial (Homo sapiens) (UniProt P31040). As to the kind of experiment: Binding affinity to flavoprotein subunit of succinate dehydrogenase in human Jurkat cells at 10 uM after 24 hrs by 2D electrophoresis. Type of data set: cell-based.
Data set [5] addresses Protein disulfide-isomerase (Homo sapiens) (UniProt P07237). As to the kind of experiment: Binding affinity to disulfide isomerase in human Jurkat cells at 10 uM after 24 hrs by 2D electrophoresis. The format is cell-based.

Active and inactive are the calls of the source. The calls are words filed in the database; no cut-off is given here.

Sequence of Succinate dehydrogenase [ubiquinone] flavoprotein subunit, mitochondrial (Homo sapiens) (P31040 whole entry): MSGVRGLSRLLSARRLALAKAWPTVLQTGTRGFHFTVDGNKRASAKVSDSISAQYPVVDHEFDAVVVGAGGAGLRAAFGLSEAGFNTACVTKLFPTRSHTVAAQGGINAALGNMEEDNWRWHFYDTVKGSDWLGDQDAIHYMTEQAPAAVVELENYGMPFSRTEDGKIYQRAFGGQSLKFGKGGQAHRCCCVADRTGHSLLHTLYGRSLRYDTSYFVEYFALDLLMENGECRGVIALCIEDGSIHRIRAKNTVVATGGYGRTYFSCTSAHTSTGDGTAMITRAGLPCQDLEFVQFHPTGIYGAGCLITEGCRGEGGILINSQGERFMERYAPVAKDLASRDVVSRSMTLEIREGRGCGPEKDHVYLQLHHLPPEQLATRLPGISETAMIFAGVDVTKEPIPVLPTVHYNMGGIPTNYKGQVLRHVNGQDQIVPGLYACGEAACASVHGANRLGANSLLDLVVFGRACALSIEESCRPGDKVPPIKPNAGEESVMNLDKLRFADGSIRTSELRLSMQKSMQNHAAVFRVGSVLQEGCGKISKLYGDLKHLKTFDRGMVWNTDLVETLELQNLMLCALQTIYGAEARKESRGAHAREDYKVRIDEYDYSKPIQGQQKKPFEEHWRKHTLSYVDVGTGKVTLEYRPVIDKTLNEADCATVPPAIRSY
Sequence of Protein disulfide-isomerase (Homo sapiens) (P07237 18-508 limits assumed): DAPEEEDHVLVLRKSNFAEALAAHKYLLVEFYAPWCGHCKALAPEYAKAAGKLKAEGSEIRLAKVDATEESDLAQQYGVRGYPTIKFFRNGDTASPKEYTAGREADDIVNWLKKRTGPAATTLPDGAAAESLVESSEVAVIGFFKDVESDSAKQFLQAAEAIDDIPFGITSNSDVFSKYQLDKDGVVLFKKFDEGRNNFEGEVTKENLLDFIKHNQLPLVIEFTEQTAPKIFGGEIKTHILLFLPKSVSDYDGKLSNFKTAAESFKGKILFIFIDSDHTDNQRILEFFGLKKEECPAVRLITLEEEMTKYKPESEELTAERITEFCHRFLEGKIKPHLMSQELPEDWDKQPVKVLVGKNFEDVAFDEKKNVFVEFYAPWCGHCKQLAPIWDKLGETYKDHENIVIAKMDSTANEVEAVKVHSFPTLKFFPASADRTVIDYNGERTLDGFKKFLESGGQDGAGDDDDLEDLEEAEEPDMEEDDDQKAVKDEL
Sequence of COP9 signalosome complex subunit 7b (Homo sapiens) (Q9H9Q2 whole entry, one chain of several): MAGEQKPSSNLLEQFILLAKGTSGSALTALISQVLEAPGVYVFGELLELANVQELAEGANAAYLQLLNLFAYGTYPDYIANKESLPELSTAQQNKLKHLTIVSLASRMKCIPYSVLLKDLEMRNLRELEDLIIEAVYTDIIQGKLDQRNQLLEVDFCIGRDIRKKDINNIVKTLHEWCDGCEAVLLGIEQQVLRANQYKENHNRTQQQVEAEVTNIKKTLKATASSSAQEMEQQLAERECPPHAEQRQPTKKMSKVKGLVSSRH

Take `CCCCCC[C@H](CCC[C@H](O)[C@H]1CC[C@@H]([C@H]2CC[C@@H]([C@H](O)CCCCCCCCCCCC3=C[C@H](C)OC3=O)O2)O1)n1cc(CCc2ccc3c(c2)Oc2cc(O)ccc2C32OC(=O)c3ccccc32)nn1` (stereo partly specified): the Activity in data set [1] was found to be 71%. Moreover, the result in data set [2], in data set [3], in data set [4] and in data set [5] was Active.

For `CCCCCC[C@H](O)CCC[C@H](O)[C@H]1CC[C@@H]([C@H]2CC[C@@H]([C@H](O)CCCCCCCCCCCn3cc(COc4ccc5c(c4)Oc4cc(O)ccc4C54OC(=O)c5ccccc54)nn3)O2)O1` (stereo partly specified), the Activity in data set [1] was found to be 62%.
